pIC50: −log10 of the molar value.
How the values were obtained:
LNCaP = experiment: Antiproliferative activity against human LNCAP cells assessed as reduction in cell viability incubated for 24 hrs by MTT assay
HT-1080 = experiment: Antiproliferative activity against human HT-1080 cells assessed as reduction in cell viability; format: functional, cell-based
A549 = experiment: Antiproliferative activity against human A549 cells assessed as reduction in cell growth; format: functional, cell-based
[1] = Inhibition of NF-kappaB (unknown origin); parameters: species or system Homo sapiens
DU-145 = experiment: Antiproliferative activity against human DU-145 cells assessed as reduction in cell viability incubated for 48 hrs by CCK8 assay; format: functional, cell-based; conditions: DU-145, 48 h
PC-3 = experiment: Antitumor activity against human PC-3 cells xenografted in mouse assessed as tumor growth inhibition at 10 mg/kg, po administered once daily relative to control; format: functional; parameters: scale not given: the % may be the effect or the level left
[2] = target: S-phase kinase-associated protein 2 (Homo sapiens, UniProt Q13309); experiment: Inhibition of SKP2 (unknown origin)
NCI-H358 = experiment: Antiproliferative activity against human NCI-H358 cells assessed as reduction in cell growth incubated for 72 hrs by CCK-8 assay; format: functional, cell-based; conditions: NCI-H358, 72 h
NCI-H2170 = experiment: Antiproliferative activity against human NCI-H2170 cells assessed as reduction in cell growth incubated for 72 hrs by CCK-8 assay; format: functional, cell-based; conditions: NCI-H2170, 72 h
HGC-27 = experiment: Antiproliferative activity against human HGC-27 cells assessed as reduction in cell growth incubated for 24 hrs by CCK-8 assay; format: functional, cell-based; conditions: HGC-27, 24 h

Sequence of S-phase kinase-associated protein 2 (Q13309 whole entry): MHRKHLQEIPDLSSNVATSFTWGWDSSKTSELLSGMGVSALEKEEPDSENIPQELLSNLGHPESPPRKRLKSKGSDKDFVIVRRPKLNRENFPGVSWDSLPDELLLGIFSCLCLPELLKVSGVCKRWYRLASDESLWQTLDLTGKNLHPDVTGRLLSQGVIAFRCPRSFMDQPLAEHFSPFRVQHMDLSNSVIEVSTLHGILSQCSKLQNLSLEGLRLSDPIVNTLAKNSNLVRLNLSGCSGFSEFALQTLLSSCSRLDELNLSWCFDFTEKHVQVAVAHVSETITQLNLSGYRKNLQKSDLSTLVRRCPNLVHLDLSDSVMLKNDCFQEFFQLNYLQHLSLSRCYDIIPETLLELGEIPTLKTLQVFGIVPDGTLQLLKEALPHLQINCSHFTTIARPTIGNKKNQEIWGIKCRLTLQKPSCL

## O=C(OCn1ncc(Cl)c(Cl)c1=O)c1cccc(C(F)(F)F)c1
LNCaP
  pIC50: 5.77

## Cc1ccc(S(=O)(=O)Nc2cc(Oc3cc(F)cc(F)c3)cc3cccnc23)cc1
HT-1080
  pIC50: 7.10
A549
  pIC50: 5.39

## COc1ccc(Oc2cc(NS(=O)(=O)c3ccc(C)cc3)c3ncccc3c2)cc1
HT-1080
  pIC50: 6.13
A549
  pIC50: 5.39

## Cc1ccc(S(=O)(=O)Nc2cc(Oc3cccc(C#N)c3)cc3cccnc23)cc1
HT-1080
  pIC50: 5.17
A549
  pIC50: 5.19

## O=C(O)c1ccc(N2N=C(Cc3ccccc3)/C(=C\c3ccc(-c4ccccc4F)o3)C2=O)cc1
[1]
  pIC50: 5.28

## C/C=C/C(=O)c1c(OC)cc(=O)oc1C
DU-145
  pIC50: 4.71

## O=C(CCl)NC1CCN(c2cnc(-c3ccccc3)c(-c3ccccc3)n2)CC1
PC-3
  Activity: 55.68%
[2]
  pIC50: 5.56

## CC(C)(C)c1cc2cc(NC(=O)c3cccs3)ccc2[nH]1
LNCaP
  pIC50: 5.33

## O=C(Nc1cc(F)cc(F)c1)Nc1cccc(COc2ccc(Cl)cc2Cl)c1
NCI-H358
  pIC50: 5.19
NCI-H2170
  pIC50: 5.26

## O=C(Nc1cc(F)cc(F)c1)Nc1cccc(COc2ncc(Cl)cn2)c1
NCI-H358
  pIC50: 5.23
NCI-H2170
  pIC50: 5.25

## N#Cc1ccc(OCc2cccc(NC(=O)Nc3cc(F)cc(F)c3)c2)cc1
NCI-H358
  pIC50: 5.24
NCI-H2170
  pIC50: 5.39

## O=C(Nc1cc(F)cc(F)c1)Nc1cccc(CNc2ccc(Cl)cc2)c1
NCI-H358
  pIC50: 5.16
NCI-H2170
  pIC50: 5.14

## CCCCc1ccc(NC(C)=O)c(C)c1
LNCaP
  pIC50: 5.96

## CC(Oc1ccc(C#N)cc1)c1cccc(NC(=O)Nc2cc(F)cc(F)c2)c1 (configuration not stated)
NCI-H358
  pIC50: 5.33
NCI-H2170
  pIC50: 5.35

## CS(=O)(=O)c1ccc(CCC(=O)Nc2ccccn2)cc1
LNCaP
  pIC50: 5.45

## COc1cc(C)ccc1-c1nc(C)c(NC(=O)OCc2ccc3c(c2)nc2n3CCOC2)s1
HT-1080
  pIC50: 8.76

## CCn1nnc2cc(COC(=O)Nc3sc(-c4ccc(C)cc4OC)nc3C)ccc21
HT-1080
  pIC50: 8.79

## O=C(Nc1cc(F)cc(F)c1)Nc1cccc(COc2ccccc2Cl)c1
NCI-H358
  pIC50: 5.09
NCI-H2170
  pIC50: 5.10

## O=C(Nc1cc(F)cc(F)c1)Nc1cccc(COc2ccc(Cl)cc2)c1
NCI-H358
  pIC50: 5.10
NCI-H2170
  pIC50: 5.50

## CCOc1nc2cccc(C(=O)OCc3oc(=O)oc3C)c2n1Cc1ccc(-c2ccccc2-c2noc(=O)[nH]2)cc1 [AZILSARTAN MEDOXOMIL]
HGC-27
  pIC50: 6.40
DU-145
  pIC50: 4.30

Source: ChEMBL document CHEMBL6071154, “A patent review of SCF E3 ligases inhibitors for cancer:Structural design, pharmacological activities and structure-activity relationship” (Eur J Med Chem, 2024)
